In patent US20170340693A1, “DISLODGEMENT AND RELEASE OF HSC USING ALPHA 9 INTEGRIN ANTAGONIST AND CXCR4 ANTAGONIST” (COMMONWEALTH SCIENTIFIC AND INDUSTRIAL RESEARCH ORGANISATION, priority 2014, published 2017):

Assays:
[1] = test system: cord blood (CB) mononuclear cells (MNC); assay: R-BC154 (IXb) binding to cord blood mononuclear cell populations, flow cytometry; type: cell-based, human; settings: 1 mM Ca2+/Mg2+
Protocol: (§1) For in vitro labelling experiments, 5×10^6 BM cells from C57 mice, conditional α4^−/−/α9^−/− mice and humanised NODSCIDIL2Rγ^−/− mice and human cord blood MNCs were treated with R-BC154 (IXb) (up to 300 nM) in PBS (0.5% BSA) or TBS (0.5% BSA) containing either 1 mM CaCl2/MgCl2 (activating) or 10 mM EDTA (deactivating) at 40×10^6 cells/ml for 20 mins at 4° C. Cells were washed with cold PBS (2% FBS) and then immunolabelled as described in “Antibody Cocktails” prior to flow cytometric analysis. For in vivo experiments, C57BL/6 mice, α4^−/−/α9^−/− vav-cre mice and humanised NODSCIDIL2Rγ^−/− mice received either intravenous or subcutaneous injections of R-BC154 (IXb) (5-10 mg/kg) at 100 ul/10 gm mouse weight and analysed as described above.
(§2) For the assessment of α9β1 contribution to R-BC154 (IXb) binding, human and murine cells were stained with R-BC154 (100 nM) in the absence of competing antagonist or in the presence of excess amounts of the selective α4β1 antagonist BIO5192 (1 μM) or dual α4β1/α9β1 antagonist BOP (1 μM) in PBS containing 0.5% BSA and 1 mM CaCl2MgCl2 at 0° C. for 30 min. Cells were washed, immunolabelled as described above and analysed by flow cytometry. The contribution of α9β1 binding was calculated by measuring the difference in MFI between R-BC154 (IXb)+BIO5192 and +BOP and expressed as a % of R-BC154 (IXb) alone.

[2] = test system: HSC and progenitors isolated from human BM; assay: R-BC154 (IXb) binding to human BM cells; type: cell-based; settings: Ca2+/Mg2+
Protocol: as §2

[3] = test system: human BM committed cells, progenitors and HSC of huNSG mice; assay: R-BC154 (IXb) binding to humanized NSG (huNSG) BM; type: cell-based; settings: Ca2+/Mg2+
Protocol: as §1, §2

[4] = test system: murine BM progenitors (LSK) and HSC (LSKSLAM); assay: In vitro R-BC154 (IXb) binding to murine central and endosteal BM cells; type: cell-based, mice
Description: Populations of endosteal and central murine bone marrow cells were isolated as previously described in J. Grassinger, et al Cytokine, 2012, 58, 218-225 and D. N. Haylock et al Stem Cells, 2007, 25, 1062-1069. Briefly, one femur, tibia and iliac bone were excised and cleaned of muscle. After removing the epi- and metaphyseal regions, bones were flushed with PBS-2% FBS to obtain central bone marrow cells. Flushed long bones and epi- and metaphyseal fragments were pooled and crushed using a mortar and pestle. Bone fragments were digested with Collagenase I (3 mg/ml) and Dispase II (4 mg/ml) at 37° C. in an orbital shaker at 750 rpm. After 5 min, bone fragments were washed once with PBS and once with PBS 2% FBS to collect the endosteal bone marrow cells. Peripheral blood was collected by retro-orbital puncture and red blood cells were lysed using NH4Cl lysis buffer for 5 min at room temperature. Isolated cell populations were washed with PBS 2% FBS and then stained for flow cytometry as described in Antibody Cocktails above.
as §1
To determine whether integrin activation is required for binding to both central and endosteal BM progenitors (Lin^−Sca-1^+ckit^+ cells; LSK) and HSC (LSKCD150^+CD48^− cells; LSKSLAM) (FIG. 3a), R-BC154 (IXb) binding was assessed in the presence of 1 mM Ca^2+/Mg^2+ (FIG. 3b).

[5] = test system: bone marrow progenitor cells (LSK) and HSC (LSKSLAM); assay: In vivo bone marrow binding assay; settings: 10 mg kg−1 intravenously, versus un-injected mice
Protocol: R-BC154 (IXb) in PBS (10 mg kg-1) was injected intravenously into C57 mice. After 5 min, bone marrow cells were isolated as previously described in D. N. Haylock et at Stem Cells, 2007, 25, 1062-1069 and J. Grassinger, et al Cytokine, 2012, 58, 218-225. Briefly, one femur, tibia and iliac crest were excised and cleaned of muscle. After removing the epi- and metaphyseal regions, bones were flushed with PBS-2% FBS to obtain whole bone marrow, which were washed with PBS-2% FBS and then immunolabelled for flow cytometry. For analysis of R-BC154 (IXb) binding, the following antibody combinations were chosen to minimise emission spectra overlap. […]
To assess whether R-BC154 (IXb) and this class of N-phenylsulfonyl proline-based peptidomimetics could bind directly to HSC, R-BC154 (IXb) (10 mg kg^−1) was injected intravenously into mice and analysed for R-BC154 (IXb) labelling of phenotypically defined bone marrow progenitor cells (LSK cell; lineage-Sca-1+c-Kit+) and HSC (LSKSLAM cell; LSKCD48-CD150+) using multi-colour flow cytometry. […] Furthermore, in vivo R-BC154 (IXb) binding was also confirmed by fluorescence microscopy on purified populations of progenitor cells (Lineage-Sca-1+c-Kit+).

α4β1 integrin = α4β1 integrin (Homo sapiens, UniProt P05556+P13612); assay: In vitro (saturation) binding of R-BC154; design: expressed in transfected cells; host or cells: LN18 (ATCC CRL-2610), retrovirally transduced; settings: in vitro binding data
Sequence of α4β1 integrin (P13612 34-1032): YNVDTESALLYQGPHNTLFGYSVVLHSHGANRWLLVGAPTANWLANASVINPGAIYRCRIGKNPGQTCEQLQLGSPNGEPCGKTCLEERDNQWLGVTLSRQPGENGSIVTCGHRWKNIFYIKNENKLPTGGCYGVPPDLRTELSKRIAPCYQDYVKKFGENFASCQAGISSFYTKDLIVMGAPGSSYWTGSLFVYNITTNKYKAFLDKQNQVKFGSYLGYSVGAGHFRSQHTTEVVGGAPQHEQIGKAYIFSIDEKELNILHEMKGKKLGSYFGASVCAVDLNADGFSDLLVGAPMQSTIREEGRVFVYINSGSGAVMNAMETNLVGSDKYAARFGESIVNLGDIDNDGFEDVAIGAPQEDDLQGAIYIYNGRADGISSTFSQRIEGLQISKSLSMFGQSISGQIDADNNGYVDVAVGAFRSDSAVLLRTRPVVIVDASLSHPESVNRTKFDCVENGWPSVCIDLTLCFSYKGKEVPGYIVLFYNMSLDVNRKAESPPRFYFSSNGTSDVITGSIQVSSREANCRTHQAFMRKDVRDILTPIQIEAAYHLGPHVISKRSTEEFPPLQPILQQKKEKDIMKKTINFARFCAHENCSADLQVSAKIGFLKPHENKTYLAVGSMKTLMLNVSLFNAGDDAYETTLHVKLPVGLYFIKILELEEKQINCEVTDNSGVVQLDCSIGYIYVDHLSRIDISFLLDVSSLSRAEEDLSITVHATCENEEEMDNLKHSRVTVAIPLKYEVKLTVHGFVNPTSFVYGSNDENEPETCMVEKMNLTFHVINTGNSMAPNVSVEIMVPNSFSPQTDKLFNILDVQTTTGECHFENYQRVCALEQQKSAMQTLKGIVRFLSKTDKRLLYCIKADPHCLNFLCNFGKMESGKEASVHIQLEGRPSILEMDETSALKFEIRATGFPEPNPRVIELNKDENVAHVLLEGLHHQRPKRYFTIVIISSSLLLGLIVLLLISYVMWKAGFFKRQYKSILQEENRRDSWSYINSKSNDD
Sequence of α4β1 integrin (P05556 21-798): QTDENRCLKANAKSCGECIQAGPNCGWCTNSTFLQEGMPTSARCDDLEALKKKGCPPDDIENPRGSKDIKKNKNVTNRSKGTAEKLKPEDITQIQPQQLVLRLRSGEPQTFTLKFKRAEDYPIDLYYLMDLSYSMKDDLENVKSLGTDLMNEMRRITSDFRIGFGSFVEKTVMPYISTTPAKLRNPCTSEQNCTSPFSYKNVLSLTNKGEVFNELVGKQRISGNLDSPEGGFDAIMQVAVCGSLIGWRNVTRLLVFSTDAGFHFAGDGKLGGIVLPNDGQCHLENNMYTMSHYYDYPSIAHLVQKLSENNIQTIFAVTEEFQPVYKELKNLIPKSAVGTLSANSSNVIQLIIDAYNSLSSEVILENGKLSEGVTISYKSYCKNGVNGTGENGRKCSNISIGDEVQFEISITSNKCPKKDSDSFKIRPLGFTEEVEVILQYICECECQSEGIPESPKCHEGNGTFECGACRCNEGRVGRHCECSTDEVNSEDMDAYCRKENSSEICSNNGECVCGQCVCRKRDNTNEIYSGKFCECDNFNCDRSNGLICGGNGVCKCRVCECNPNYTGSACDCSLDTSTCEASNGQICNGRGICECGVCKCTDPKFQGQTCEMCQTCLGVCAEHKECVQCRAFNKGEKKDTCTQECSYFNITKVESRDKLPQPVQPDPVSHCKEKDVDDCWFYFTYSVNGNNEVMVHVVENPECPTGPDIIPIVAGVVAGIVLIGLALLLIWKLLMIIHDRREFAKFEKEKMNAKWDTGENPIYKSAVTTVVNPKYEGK
Protocol: (§3) Cultured α4β1, α9β1 and control LN18 cells (0.5×10^6 cells) were treated with 100 μl of compound (R-BC154) at 0, 1, 3, 10, 30 and 100 nM in TBS-2% FBS (containing either no cations, 1 mM CaCl2—MgCl2 or 1 mM MnCl2). The cells were incubated at 37° C. for 60 min, washed once with TBS-2% FBS, dry pelleted and resuspended in the relevant binding buffer for flow cytometric analysis. Mean channel fluorescence was plotted against concentration and fitted to a one-site saturation ligand binding curve using GraphPad Prism 6. The dissociation constant, Kd was determined from the curves.

α9β1 integrin = α9β1 integrin (Homo sapiens, UniProt P05556+Q13797); assay: In vitro (saturation) binding of R-BC154; design: expressed in transfected cells; host or cells: LN18 (ATCC CRL-2610), retrovirally transduced; endogenous α4 silenced with pSM2c-shITGA4; settings: in vitro binding data
Sequence of α9β1 integrin (Q13797 30-1035): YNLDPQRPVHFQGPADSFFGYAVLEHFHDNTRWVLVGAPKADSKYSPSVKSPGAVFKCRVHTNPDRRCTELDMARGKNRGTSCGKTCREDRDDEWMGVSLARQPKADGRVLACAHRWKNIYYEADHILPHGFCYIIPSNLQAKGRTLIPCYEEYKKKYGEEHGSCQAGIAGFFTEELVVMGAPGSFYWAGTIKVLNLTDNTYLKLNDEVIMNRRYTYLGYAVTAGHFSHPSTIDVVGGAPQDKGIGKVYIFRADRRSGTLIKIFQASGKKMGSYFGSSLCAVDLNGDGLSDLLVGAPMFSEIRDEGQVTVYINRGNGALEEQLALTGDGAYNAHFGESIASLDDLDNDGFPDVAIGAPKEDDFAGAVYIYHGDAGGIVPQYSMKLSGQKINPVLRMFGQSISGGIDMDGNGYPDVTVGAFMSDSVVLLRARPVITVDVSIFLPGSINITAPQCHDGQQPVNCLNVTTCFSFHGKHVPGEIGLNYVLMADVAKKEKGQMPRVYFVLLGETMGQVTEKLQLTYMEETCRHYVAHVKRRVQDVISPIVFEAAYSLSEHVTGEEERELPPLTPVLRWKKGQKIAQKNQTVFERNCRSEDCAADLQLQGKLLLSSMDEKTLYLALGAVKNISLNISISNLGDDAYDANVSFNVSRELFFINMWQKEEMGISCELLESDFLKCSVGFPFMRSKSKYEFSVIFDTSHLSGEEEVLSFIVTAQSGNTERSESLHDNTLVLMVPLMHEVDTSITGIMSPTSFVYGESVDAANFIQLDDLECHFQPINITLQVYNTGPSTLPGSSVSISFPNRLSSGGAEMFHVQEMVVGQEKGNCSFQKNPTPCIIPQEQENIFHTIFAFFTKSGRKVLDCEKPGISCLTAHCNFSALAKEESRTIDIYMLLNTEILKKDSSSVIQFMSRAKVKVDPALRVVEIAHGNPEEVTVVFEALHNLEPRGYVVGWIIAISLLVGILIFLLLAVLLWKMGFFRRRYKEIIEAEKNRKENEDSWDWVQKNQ
Sequence of α9β1 integrin (P05556 21-798): as the sequence (P05556 21-798) above
Protocol: as §3

Compound: CCN(CC)c1ccc2c(-c3ccc(S(=O)(=O)NCc4cn(C5C[C@@H](C(=O)N[C@@H](Cc6ccc(OC(=O)N7CCCC7)cc6)C(=O)O)N(S(=O)(=O)c6ccccc6)C5)nn4)cc3S(=O)(=O)[O-])c3ccc(=[N+](CC)CC)cc-3oc2c1 (stereo partly drawn) [R-BC154 (IXb)]
- binding to CB HSC (CD34+CD38−) and progenitors (CD34+CD38+) [1]: high
- binding to CB lineage committed cells (CD34−CD38+) [1]: modest
- binding to HSC and progenitors isolated from human BM [2]: efficiently bound
- binding through α9β1 on huNSG BM committed cells, progenitors and HSC [3]: significant binding through α9β1 only occurred on HSC
- binding to central versus endosteal LSK and LSKSLAM ([4]; 1 mM Ca2+/Mg2+): greater binding to central LSK and LSKSLAM was observed relative to their endosteal counterparts
- binding to α4−/−/α9−/− LSK and LSKSLAM cells ([4]; BM of α4flox/flox α9flox/flox vav-cre mice): essentially absent
- binding to HSC and progenitors on co-treatment with EDTA ([4]; EDTA (deactivating)): completely abolished activity
- binding to endosteal and central LSK ([4]; absence of both activating cations and EDTA): binding to endosteal LSK cells was still evident but not to central LSK
- binding to lineage committed lymphoid and myeloid cells relative to LSKSLAM and LSK ([4]; exogenous activation): significantly lower relative to LSKSLAM
- labelling of BM progenitor cells and HSC after injection [5]: Increased cell-associated fluorescence
- affinity for α4β1 integrin (α4β1 integrin): high affinity
- affinity for α9β1 integrin (α9β1 integrin): high affinity
